Data: ChEMBL document CHEMBL1201862, “PubChem BioAssay data set” (2004)
Activity calls are given as the source filed them.

These molecules were tested against Cytochrome P450 2C19 (Homo sapiens, UniProt P33261) (assay: Cytochrome panel assay with activity outcomes. Panel member name: p450-cyp2c19 Compounds with AC50 equal or less than 10 uM are considered active). Details: read-out: AC50.
Type: functional

Chain of Cytochrome P450 2C19 (P33261 whole entry): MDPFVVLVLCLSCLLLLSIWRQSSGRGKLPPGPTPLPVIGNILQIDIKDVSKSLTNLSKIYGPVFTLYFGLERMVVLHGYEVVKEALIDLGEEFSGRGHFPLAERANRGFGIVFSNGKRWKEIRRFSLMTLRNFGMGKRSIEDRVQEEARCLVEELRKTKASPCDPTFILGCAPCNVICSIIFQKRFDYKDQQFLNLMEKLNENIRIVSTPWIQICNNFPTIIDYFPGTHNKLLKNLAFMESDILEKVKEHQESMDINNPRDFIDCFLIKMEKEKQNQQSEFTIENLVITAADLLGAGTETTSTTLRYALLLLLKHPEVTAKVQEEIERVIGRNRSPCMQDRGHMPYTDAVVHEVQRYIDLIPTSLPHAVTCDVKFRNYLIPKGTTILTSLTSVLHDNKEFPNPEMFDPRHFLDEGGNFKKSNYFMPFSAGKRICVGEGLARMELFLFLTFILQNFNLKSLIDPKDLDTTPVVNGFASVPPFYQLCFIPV

AC50 | SMILES
3.16 µM (inconclusive) | COc1ccc(OC)c2nc(O)c(CCNS(=O)(=O)c3ccccc3)cc12
17.8 µM (inconclusive) | CCCCNCCOCCSc1ccc(Cl)cc1
28.2 µM (inconclusive) | O=C(CSc1nnc(-c2cccs2)n1-c1ccccc1)N1CCCC1
15.8 µM (inconclusive) | COc1ccccc1-c1ccc2ncnc(N3CCN(C)CC3)c2c1
39.8 µM (inconclusive) | COc1cccc(Cn2c(=O)c(-c3ccccc3)nc3cnc(OC)nc32)c1
0.891 µM (inconclusive) | CCC(=O)Nc1ccc(C(=O)NNC(=O)c2cccs2)cc1
10 µM (inconclusive) | CCC/C=C(\CCC)C(NC(=O)c1ccc(C(=O)OC)cc1)c1ccc(C(=O)OC)cc1 (centres undefined)
6.31 µM (inconclusive) | COc1cc(C(=O)Nc2ccc(-c3nnc(-c4ccco4)o3)cc2)cc(OC)c1OC
39.8 µM (inconclusive) | CCCS(=O)(=O)N1CCCC(C(=O)NCC2CCCO2)C1 (centres undefined)
31.6 µM (inconclusive) | CCNc1ncc2nc(CCc3ccccc3)c(=O)n(-c3ccccc3)c2n1
3.16 µM (inconclusive) | CCCC[C@@H]1C[C@H]1C(NC(=O)c1cccs1)c1ccc(-c2ccccc2)cc1 (some centres undefined)
11.2 µM (inconclusive) | CCN(CC)C(=O)CSc1nnc(C2CCCCC2)o1
0.0158 µM (inconclusive) | O=C(O)/C=C\C(=O)NCc1ccccc1
2.51 µM (inconclusive) | OCCN1CCN(CCC=C2c3ccccc3Sc3ccc(Cl)cc32)CC1 [ZUCLOPENTHIXOL]

SMILES | AC50
COc1cc(OC)c(/C=C2/C(=O)Nc3ccccc32)c(OC)c1 | 31.6 µM (inconclusive)

These molecules were tested against T1, Corticotropin-releasing factor receptor 2/Corticotropin-releasing factor-binding protein (Homo sapiens, UniProt P24387+Q13324) (assay: activators of CRF receptor 2 with binding protein – uHTS hits, confirmation (AID 602473)). Details: read-out: EC50_Mean.
T1 sequence (Q13324 whole entry): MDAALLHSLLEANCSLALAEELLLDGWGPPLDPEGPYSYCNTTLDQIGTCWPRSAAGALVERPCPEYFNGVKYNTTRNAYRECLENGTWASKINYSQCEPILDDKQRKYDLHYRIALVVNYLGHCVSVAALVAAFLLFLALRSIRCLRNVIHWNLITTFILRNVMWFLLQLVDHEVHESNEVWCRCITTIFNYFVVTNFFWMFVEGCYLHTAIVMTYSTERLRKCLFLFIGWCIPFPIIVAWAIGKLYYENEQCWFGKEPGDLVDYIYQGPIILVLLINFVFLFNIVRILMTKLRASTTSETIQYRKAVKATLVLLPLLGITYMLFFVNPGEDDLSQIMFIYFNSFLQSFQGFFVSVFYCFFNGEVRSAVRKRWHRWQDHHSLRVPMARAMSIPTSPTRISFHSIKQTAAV
T1 sequence (P24387 whole entry): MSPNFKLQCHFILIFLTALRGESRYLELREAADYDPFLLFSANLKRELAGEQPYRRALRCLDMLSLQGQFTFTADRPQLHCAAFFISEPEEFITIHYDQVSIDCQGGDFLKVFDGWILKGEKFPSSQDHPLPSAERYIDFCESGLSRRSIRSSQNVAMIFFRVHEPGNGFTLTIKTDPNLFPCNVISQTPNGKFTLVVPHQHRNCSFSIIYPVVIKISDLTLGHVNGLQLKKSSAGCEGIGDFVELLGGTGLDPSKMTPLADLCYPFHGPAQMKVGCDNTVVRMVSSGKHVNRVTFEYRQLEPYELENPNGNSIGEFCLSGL
Type: functional

EC50 | SMILES
4.6 µM (active) | CC(C)NS(=O)(=O)c1ccc(NC(=O)C(C)Oc2ccc(C(=O)c3ccccc3)cc2)cc1 (centres undefined)
> 53 µM (inactive) | O=C(COC(=O)CC(c1ccccc1)c1ccccc1)NCc1ccc(Cl)cc1

Each molecule was assayed against Cytochrome P450 2D6 (Homo sapiens, UniProt P10635). Details: not given.
Chain of Cytochrome P450 2D6 (P10635 whole entry): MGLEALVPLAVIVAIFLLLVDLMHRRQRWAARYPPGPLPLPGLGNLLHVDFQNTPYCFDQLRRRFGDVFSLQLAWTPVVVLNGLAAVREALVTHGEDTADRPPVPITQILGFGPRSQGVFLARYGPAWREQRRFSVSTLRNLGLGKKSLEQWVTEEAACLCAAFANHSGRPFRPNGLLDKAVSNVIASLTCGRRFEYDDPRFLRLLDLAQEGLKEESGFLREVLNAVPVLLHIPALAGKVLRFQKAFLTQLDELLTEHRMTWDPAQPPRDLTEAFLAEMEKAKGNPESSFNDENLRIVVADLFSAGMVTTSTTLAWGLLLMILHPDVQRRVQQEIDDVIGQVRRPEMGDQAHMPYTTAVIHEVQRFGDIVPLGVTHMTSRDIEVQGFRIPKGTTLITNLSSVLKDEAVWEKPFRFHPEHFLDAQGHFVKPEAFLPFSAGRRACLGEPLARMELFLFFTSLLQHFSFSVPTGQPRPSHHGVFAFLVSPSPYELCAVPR

AC50 | SMILES
7.94 µM (inconclusive) | O=C(CSc1nnc(-c2cccs2)n1-c1ccccc1)N1CCCC1
39.8 µM (inconclusive) | COc1ccccc1-c1ccc2ncnc(N3CCN(C)CC3)c2c1
39.8 µM (inconclusive) | COc1cccc(Cn2c(=O)c(-c3ccccc3)nc3cnc(OC)nc32)c1
25.1 µM (inconclusive) | CCC/C=C(\CCC)C(NC(=O)c1ccc(C(=O)OC)cc1)c1ccc(C(=O)OC)cc1 (centres undefined)
0.794 µM (inconclusive) | O=C(O)/C=C\C(=O)NCc1ccccc1
10 µM (inconclusive) | OCCN1CCN(CCC=C2c3ccccc3Sc3ccc(Cl)cc32)CC1 [ZUCLOPENTHIXOL]

These molecules were tested against T2, Cytochrome P450 1A2 (Homo sapiens, UniProt P05177). Details: not given.
T2 sequence (P05177 whole entry): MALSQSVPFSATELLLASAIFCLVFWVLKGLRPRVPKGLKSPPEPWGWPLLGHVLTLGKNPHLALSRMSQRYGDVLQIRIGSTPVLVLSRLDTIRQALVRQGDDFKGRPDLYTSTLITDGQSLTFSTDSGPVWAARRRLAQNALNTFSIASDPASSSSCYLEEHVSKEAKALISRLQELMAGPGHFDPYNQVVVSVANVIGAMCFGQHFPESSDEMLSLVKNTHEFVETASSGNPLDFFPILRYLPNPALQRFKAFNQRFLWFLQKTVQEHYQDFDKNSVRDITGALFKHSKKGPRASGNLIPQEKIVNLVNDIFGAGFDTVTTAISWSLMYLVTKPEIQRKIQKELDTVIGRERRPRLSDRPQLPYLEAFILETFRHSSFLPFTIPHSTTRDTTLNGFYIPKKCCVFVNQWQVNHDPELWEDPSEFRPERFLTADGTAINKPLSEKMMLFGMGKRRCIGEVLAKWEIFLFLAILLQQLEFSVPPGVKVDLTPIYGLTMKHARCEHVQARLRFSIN

AC50 | SMILES
15.8 µM (inconclusive) | COc1cccc(Cn2c(=O)c(-c3ccccc3)nc3cnc(OC)nc32)c1
2 µM (inconclusive) | CCCC[C@@H]1C[C@H]1C(NC(=O)c1cccs1)c1ccc(-c2ccccc2)cc1 (some centres undefined)

These molecules were tested against Cytochrome P450 3A4 (Homo sapiens, UniProt P08684). Details: not given.
Chain of Cytochrome P450 3A4 (P08684 whole entry): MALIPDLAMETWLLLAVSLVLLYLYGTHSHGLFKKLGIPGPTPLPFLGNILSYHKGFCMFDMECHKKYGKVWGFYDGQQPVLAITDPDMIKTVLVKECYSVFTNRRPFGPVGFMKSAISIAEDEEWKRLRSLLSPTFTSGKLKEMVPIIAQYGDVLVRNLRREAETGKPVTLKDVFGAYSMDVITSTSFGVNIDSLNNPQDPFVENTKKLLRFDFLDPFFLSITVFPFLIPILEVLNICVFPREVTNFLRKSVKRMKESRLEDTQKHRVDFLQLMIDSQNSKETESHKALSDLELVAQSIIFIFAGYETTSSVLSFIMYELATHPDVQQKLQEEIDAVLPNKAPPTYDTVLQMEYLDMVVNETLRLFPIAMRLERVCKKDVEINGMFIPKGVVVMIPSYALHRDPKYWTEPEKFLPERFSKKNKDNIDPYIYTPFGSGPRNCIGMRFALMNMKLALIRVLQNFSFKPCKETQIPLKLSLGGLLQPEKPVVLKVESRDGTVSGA

AC50 | SMILES
14.1 µM (inconclusive) | COc1ccc(OC)c2nc(O)c(CCNS(=O)(=O)c3ccccc3)cc12
14.1 µM (inconclusive) | CCCCNCCOCCSc1ccc(Cl)cc1
28.2 µM (inconclusive) | O=C(CSc1nnc(-c2cccs2)n1-c1ccccc1)N1CCCC1
6.31 µM (inconclusive) | CCCC[C@@H]1C[C@H]1C(NC(=O)c1cccs1)c1ccc(-c2ccccc2)cc1 (some centres undefined)
12.6 µM (inconclusive) | OCCN1CCN(CCC=C2c3ccccc3Sc3ccc(Cl)cc32)CC1 [ZUCLOPENTHIXOL]

What follows are molecules tested against Cytochrome P450 2C9 (Homo sapiens, UniProt P11712). Details: not given.
Chain of Cytochrome P450 2C9 (P11712 whole entry): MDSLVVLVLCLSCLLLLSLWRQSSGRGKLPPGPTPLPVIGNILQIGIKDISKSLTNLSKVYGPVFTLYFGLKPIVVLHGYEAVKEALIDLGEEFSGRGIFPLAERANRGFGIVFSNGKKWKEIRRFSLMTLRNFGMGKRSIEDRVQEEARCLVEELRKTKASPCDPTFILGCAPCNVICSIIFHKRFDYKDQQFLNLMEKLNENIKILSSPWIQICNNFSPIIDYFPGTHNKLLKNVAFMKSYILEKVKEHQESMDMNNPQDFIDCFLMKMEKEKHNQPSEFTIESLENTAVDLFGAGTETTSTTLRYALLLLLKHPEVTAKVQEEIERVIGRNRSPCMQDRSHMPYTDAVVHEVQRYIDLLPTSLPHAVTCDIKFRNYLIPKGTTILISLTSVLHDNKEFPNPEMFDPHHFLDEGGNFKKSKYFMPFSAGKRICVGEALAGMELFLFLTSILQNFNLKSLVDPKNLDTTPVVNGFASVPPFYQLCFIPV

AC50 | SMILES
14.1 µM (inconclusive) | COc1ccc(OC)c2nc(O)c(CCNS(=O)(=O)c3ccccc3)cc12
12.6 µM (inconclusive) | O=C(CSc1nnc(-c2cccs2)n1-c1ccccc1)N1CCCC1
7.94 µM (inconclusive) | COc1cc(C(=O)Nc2ccc(-c3nnc(-c4ccco4)o3)cc2)cc(OC)c1OC
8.91 µM (inconclusive) | CCCS(=O)(=O)N1CCCC(C(=O)NCC2CCCO2)C1 (centres undefined)
